Results published in PMC11189555, “Aryl amino acetamides prevent Plasmodium falciparum ring development via targeting the lipid-transfer protein PfSTART1” (Nature Communications, 2024).
Like-named read-outs stand apart in the source and are kept apart here.

Tested on: PopD E3 M-833 resistant clone (PfSTART1 N309K)
Test: Growth inhibition assay (72 h, LDH activity)
Format: cell-based, Plasmodium falciparum
Procedure: The drug was then removed, and parasites were allowed to recover. Another cycle of drug treatment (3 μM M-833) was then resumed. The resistant lines were cloned out by limiting dilution (diluting the culture into a 96-well plate to achieve an average of ~0.3 parasites per well), prior to growth inhibition assays and genomic DNA (gDNA) extraction (DNeasy Blood and Tissue kit (Qiagen)[18].
Parasite growth assays with inhibitory compounds were performed as per[11] and are fully described in the Supplementary Information.
Molecular biology and transfection of P. falciparum: CRISPR method.
The full 5’ homology region of pfstart1 (either WT, N309K or N330K) was amplified from pPfSTART1-HA-2A-Neo-glmS with the same 5’ BglII primer and a new 3’ primer that replaced with PstI with SpeI and introduced a stop codon. The PCR product was then digested with BglII and SpeI and inserted into similarly digested p1.2 parasite vector2. The p1.2 vector had previously been inserted with a homology region amplified from the 3’ end of the pfstart1 gene (3’HB) to form a second homology block for double recombination. The primers used to amplify 3’HB are listed primers listed in […]
60 μg of p1.2-PfSTART1(WT/N309K/N330K) plasmid was linearised with KasI, precipitated in 3 M sodium acetate and ethanol (70% final concentration) overnight at -20°C. The DNA pellet was washed in cold 70% ethanol and resuspended in cytomix 3.
50 μ M of crRNA ( Table S 2) and 50 μM of tracRNA (Integrated DNA Technologies) were allowed to form a duplex (5 min at 95°C), and Cas9 enzyme (Integrated DNA Technologies) was added, and incubated for 20 min at room temperature 4. This crRNA -tracRNA -Cas9 mix was added to each DNA preparation and transfected to 3D7 ring parasites using the Bio -Rad Gene Pulser at 310 V and 950 μF.
Parasites containing the transfected DNA were selected using 2.5 nM WR99210 (Jacobus). Parasites lines were cloned using limiting dilution. Correct integration was tested by PCR (using primer START_5’UTR.F and START_Int.R1 , Table S 2), and sequencing was done using the primers START_3F and START_Int.R2 (Table S 2).
Growth inhibition assays. Synchronised ring-stage parasites (0.3-0.6% parasitemia, 2% haematocrit) were grown for 72 h in a serial-dilution of the compound under […]
and compound 4. Note that M-833 was first purchased from MolPort (MolPort -002-267-916) then made in-house at WEHI: the differences observed in EC50s across experiments are attributed to the different batches of M -833. For some experiments, 0, 0.25 or 2.5 mM of glucosamine (GlcN) was also added. Experiments were set up in technical duplicates or triplicates. Following a freeze -thaw cycle, lactate dehydrogenase (LDH) activity was assessed as an indicator of parasite growt h 5. 30 μL of parasite culture was incubated for 30 min in the dark with 75 μL Malstat mixture (0.1 M Tris pH 9.0, 20 g/L lactic acid, pH 7.5, 0.2% Triton-X100, 0.5 g/L acetylpyridine adenine dinucleotide (APAD, Sigma), 200 μg/mL nitroblue tetrazolium (NBT; Sigma), 1 μg/mL phenozine ethosulfate (PES; Sigma)). Absorbance was then measured at 650 nm, transformed using the formula below, plotted against the logarithm of the concentrations, and a non-linear regression (log(inhibitor) vs. response, variable slope) was calculated using GraphPad Prism to assess the half-inhibitory […]
Growth inhibition % = (1 − average(sample)− average(uRBC)) ∗ 100 […]
The DMSO samples were also used to assess growth of parasite in the presence of 0.25 and 2.5 mM GlcN (normalised by DMSO in 0 mM GlcN).
Egress, invasion & recovery assay. To measure egress, invasion and follow up recovery in the presence of different compounds, we adapted the method developed in6, using Hyp1-Nluc parasites7. These parasites episomally express the exported PEXEL protein Hyp1 (PF3D7_0113300) tagged with a NanoLuc luciferase (NLuc) and were selected with 2.5 nM WR99210 (Jacobus). Highly synchronised schizonts were […]

With `Cc1cc(Cl)c(S(=O)(=O)N2CCCC2)cc1OCC(=O)NC1CCCCC1` [M-833] the “Normalised to DMSO” value (M-833 0.0390625 uM, Pop D-E3 replicate 1) was 112.377, the “Normalised to DMSO” value (M-833 0.0390625 uM, Pop D-E3 replicate 3) was 111.25 and the “Normalised to DMSO” value (M-833 0.078125 uM, Pop D-E3 replicate 1) was 99.4191. For the same molecule, the “Normalised to DMSO” value (M-833 0.078125 uM, Pop D-E3 replicate 3) was 110.5, the “Normalised to DMSO” value (M-833 0.15625 uM, Pop D-E3 replicate 1) was 107.328 and the “Normalised to DMSO” value (M-833 0.15625 uM, Pop D-E3 replicate 3) was 114.438. For the same molecule, the “Normalised to DMSO” value (M-833 0.3125 uM, Pop D-E3 replicate 1) was 106.122, the “Normalised to DMSO” value (M-833 0.3125 uM, Pop D-E3 replicate 3) was 114.625 and the “Normalised to DMSO” value (M-833 0.625 uM, Pop D-E3 replicate 1) was 101.028. The “Normalised to DMSO” value (M-833 0.625 uM, Pop D-E3 replicate 3) was 107.875, the “Normalised to DMSO” value (M-833 1.25 uM, Pop D-E3 replicate 1) was 86.6399 and the “Normalised to DMSO” value (M-833 1.25 uM, Pop D-E3 replicate 3) was 110.688. The “Normalised to DMSO” value (M-833 2.5 uM, Pop D-E3 replicate 1) was 72.8552, the “Normalised to DMSO” value (M-833 2.5 uM, Pop D-E3 replicate 3) was 90.4375 and the “Normalised to DMSO” value (M-833 5 uM, Pop D-E3 replicate 1) was 44.37. The “Normalised to DMSO” value (M-833 5 uM, Pop D-E3 replicate 3) was 73.375, the “Normalised to DMSO” value (M-833 10 uM, Pop D-E3 replicate 1) was 23.9276 and the “Normalised to DMSO” value (M-833 10 uM, Pop D-E3 replicate 3) was 62.6875. The inhibition at 0.0390625 µM (Plasmodium falciparum, M-833 0.0390625 uM, Pop D-E3 replicate 1, read-out: % Inhibition) was -12.4%, the inhibition at 0.0390625 µM (Plasmodium falciparum, M-833 0.0390625 uM, Pop D-E3 replicate 3, read-out: % Inhibition) was -11.2% and the inhibition at 0.078125 µM (Plasmodium falciparum, M-833 0.078125 uM, Pop D-E3 replicate 1, read-out: % Inhibition) was 0.581%. It also gave an inhibition at 0.078125 µM (Plasmodium falciparum, M-833 0.078125 uM, Pop D-E3 replicate 3, read-out: % Inhibition) of -10.5%, an inhibition at 0.15625 µM (Plasmodium falciparum, M-833 0.15625 uM, Pop D-E3 replicate 1, read-out: % Inhibition) of -7.33% and an inhibition at 0.15625 µM (Plasmodium falciparum, M-833 0.15625 uM, Pop D-E3 replicate 3, read-out: % Inhibition) of -14.4%. It also gave an inhibition at 0.3125 µM (Plasmodium falciparum, M-833 0.3125 uM, Pop D-E3 replicate 1, read-out: % Inhibition) of -6.12%, an inhibition at 0.3125 µM (Plasmodium falciparum, M-833 0.3125 uM, Pop D-E3 replicate 3, read-out: % Inhibition) of -14.6% and an inhibition at 0.625 µM (Plasmodium falciparum, M-833 0.625 uM, Pop D-E3 replicate 1, read-out: % Inhibition) of -1.03%. The inhibition at 0.625 µM (Plasmodium falciparum, M-833 0.625 uM, Pop D-E3 replicate 3, read-out: % Inhibition) was -7.88%, the inhibition at 1.25 µM (Plasmodium falciparum, M-833 1.25 uM, Pop D-E3 replicate 1, read-out: % Inhibition) was 13.4% and the inhibition at 1.25 µM (Plasmodium falciparum, M-833 1.25 uM, Pop D-E3 replicate 3, read-out: % Inhibition) was -10.7%. It also gave an inhibition at 2.5 µM (Plasmodium falciparum, M-833 2.5 uM, Pop D-E3 replicate 1, read-out: % Inhibition) of 27.1%, an inhibition at 2.5 µM (Plasmodium falciparum, M-833 2.5 uM, Pop D-E3 replicate 3, read-out: % Inhibition) of 9.56% and an inhibition at 5 µM (Plasmodium falciparum, M-833 5 uM, Pop D-E3 replicate 1, read-out: % Inhibition) of 55.6%. It also gave an inhibition at 5 µM (Plasmodium falciparum, M-833 5 uM, Pop D-E3 replicate 3, read-out: % Inhibition) of 26.6%, an inhibition at 10 µM (Plasmodium falciparum, M-833 10 uM, Pop D-E3 replicate 1, read-out: % Inhibition) of 76.1% and an inhibition at 10 µM (Plasmodium falciparum, M-833 10 uM, Pop D-E3 replicate 3, read-out: % Inhibition) of 37.3%. The inhibition at 0.0390625 µM (Plasmodium falciparum, Pop D-E3 replicate 1, M-833 0.0390625 uM) was 2.67%, the inhibition at 0.078125 µM (Plasmodium falciparum, Pop D-E3 replicate 1, M-833 0.078125 uM) was -1.86% and the inhibition at 0.15625 µM (Plasmodium falciparum, Pop D-E3 replicate 1, M-833 0.15625 uM) was 1.05%. The inhibition at 0.3125 µM (Plasmodium falciparum, Pop D-E3 replicate 1, M-833 0.3125 uM) was 2.17%, the inhibition at 0.625 µM (Plasmodium falciparum, Pop D-E3 replicate 1, M-833 0.625 uM) was 5.06% and the inhibition at 1.25 µM (Plasmodium falciparum, Pop D-E3 replicate 1, M-833 1.25 uM) was 17.9%. For the same molecule, the inhibition at 2.5 µM (Plasmodium falciparum, Pop D-E3 replicate 1, M-833 2.5 uM) was 29.5%, the inhibition at 5 µM (Plasmodium falciparum, Pop D-E3 replicate 1, M-833 5 uM) was 46.7% and the inhibition at 10 µM (Plasmodium falciparum, Pop D-E3 replicate 1, M-833 10 uM) was 65.4%. The EC50 (Plasmodium falciparum, read-out: EC50 (95% confidence interval)) was 3.53 µM, the “Normalised to DMSO” value (Pop D-E3 replicate 1, M-833 0.0390625 uM) was 97.3266 and the “Normalised to DMSO” value (Pop D-E3 replicate 1, M-833 0.078125 uM) was 101.86. The “Normalised to DMSO” value (Pop D-E3 replicate 1, M-833 0.15625 uM) was 98.9539, the “Normalised to DMSO” value (Pop D-E3 replicate 1, M-833 0.3125 uM) was 97.8303 and the “Normalised to DMSO” value (Pop D-E3 replicate 1, M-833 0.625 uM) was 94.9438. The “Normalised to DMSO” value (Pop D-E3 replicate 1, M-833 1.25 uM) was 82.1, the “Normalised to DMSO” value (Pop D-E3 replicate 1, M-833 2.5 uM) was 70.5347 and the “Normalised to DMSO” value (Pop D-E3 replicate 1, M-833 5 uM) was 53.3127. The “Normalised to DMSO” value (Pop D-E3 replicate 1, M-833 10 uM) was 34.6377.
